Tests used:
Experiment in all cases: cells
NOMO-1 = format: functional, cell-based; settings: Homo sapiens;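 note: growth inhibition of human NOMO-1 cells measured by a cell viability assay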
Description: SANGER: Inhibition of human NOMO-1 cell growth in a cell viability assay.

SAOS-2 = format: functional, cell-based, Homo sapiens; settings: Homo sapiens, SAOS-2;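 note: growth inhibition of human Saos-2 cells determined by a cell viability assay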
Description: SANGER: Inhibition of human Saos-2 cell growth in a cell viability assay.

OAW-28 = format: functional, cell-based, Homo sapiens; settings: Homo sapiens, OAW-28;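 note: growth inhibition of OAW-28 cells, read out with a cell viability assay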
Description: SANGER: Inhibition of human OAW-28 cell growth in a cell viability assay.

HuO9 = format: functional, cell-based, Homo sapiens; settings: Homo sapiens, HuO9;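 note: growth inhibition of HuO9 cells, read out with a cell viability assay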
Description: SANGER: Inhibition of human HuO9 cell growth in a cell viability assay.

MOLT-13 = format: functional, cell-based; settings: Homo sapiens;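 note: IC50 for suppression of MOLT-13 cell growth, read out with a cell viability assay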
Description: SANGER: Inhibition of human MOLT-13 cell growth in a cell viability assay.

CAL-33 = format: functional, cell-based, Homo sapiens; settings: Homo sapiens, CAL-33;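 note: growth inhibition of CAL-33 cells, read out with a cell viability assay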
Description: SANGER: Inhibition of human CAL-33 cell growth in a cell viability assay.

NCI-H82 = format: functional, cell-based; settings: Homo sapiens;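 note: growth inhibition of NCI-H82 cells, measured with a cell viability readout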
Description: SANGER: Inhibition of human NCI-H82 cell growth in a cell viability assay.

NCI-H1304 = format: functional, cell-based; settings: Homo sapiens;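 note: growth inhibition of the cancer cell line, measured in a cell viability assay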
Description: SANGER: Inhibition of human NCI-H1304 cell growth in a cell viability assay.

NCI-H1092 = format: functional, cell-based; settings: Homo sapiens;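 note: cell growth inhibition measured with a cell viability assay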
Description: SANGER: Inhibition of human NCI-H1092 cell growth in a cell viability assay.

SJRH30 = format: functional, cell-based; settings: Homo sapiens;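 note: growth inhibition of human SJRH30 cells, read out with a cell viability assay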
Description: SANGER: Inhibition of human SJRH30 cell growth in a cell viability assay.

Panc1005 = format: functional, cell-based, Homo sapiens; settings: Homo sapiens, Panc1005;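 note: growth inhibition of human PANC-10-05 cells, measured by a cell viability assay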
Description: SANGER: Inhibition of human PANC-10-05 cell growth in a cell viability assay.

8505C = format: functional, cell-based, Homo sapiens; settings: Homo sapiens, 8505C
Description: SANGER: Inhibition of human 8505C cell growth in a cell viability assay.

NB7 = format: functional, cell-based; settings: Homo sapiens;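 note: growth inhibition of NB7 cells, read out with a cell viability assay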
Description: SANGER: Inhibition of human NB7 cell growth in a cell viability assay.

LAMA-84 = format: functional, cell-based; settings: Homo sapiens;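 note: growth inhibition of LAMA-84 cells, read out with a cell viability assay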
Description: SANGER: Inhibition of human LAMA-84 cell growth in a cell viability assay.

ZR-75-30 = format: functional, cell-based; settings: Homo sapiens;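 note: growth inhibition of ZR-75-30 cells, measured with a cell viability readout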
Description: SANGER: Inhibition of human ZR-75-30 cell growth in a cell viability assay.

OC-314 = format: functional, cell-based; settings: Homo sapiens
Description: SANGER: Inhibition of human OC-314 cell growth in a cell viability assay.

LB996-RCC = format: functional, cell-based; settings: Homo sapiens
Description: SANGER: Inhibition of human LB996-RCC cell growth in a cell viability assay.

HN = format: functional, cell-based, Homo sapiens; settings: Homo sapiens, HN
Description: SANGER: Inhibition of human HN cell growth in a cell viability assay.

SW872 = format: functional, cell-based, Homo sapiens; settings: Homo sapiens, SW872;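 note: growth inhibition of SW872 cells, read out by a viability assay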
Description: SANGER: Inhibition of human SW872 cell growth in a cell viability assay.

DU-145 = format: functional, cell-based, Homo sapiens; settings: Homo sapiens, DU-145
Description: SANGER: Inhibition of human DU-145 cell growth in a cell viability assay.

KNS-81-FD = format: functional, cell-based, Homo sapiens; settings: Homo sapiens, KNS-81-FD;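 note: growth inhibition of KNS-81-FD cells, read out with a cell viability assay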
Description: SANGER: Inhibition of human KNS-81-FD cell growth in a cell viability assay.

A704 = format: functional, cell-based, Homo sapiens; settings: Homo sapiens, A704;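 note: growth inhibition of human A704 cells, read out with a cell viability assay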
Description: SANGER: Inhibition of human A704 cell growth in a cell viability assay.

CAL-62 = format: functional, cell-based, Homo sapiens; settings: Homo sapiens, CAL-62;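 note: growth inhibition of CAL-62 cells, read out with a cell viability assay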
Description: SANGER: Inhibition of human CAL-62 cell growth in a cell viability assay.

LAN-6 = format: functional, cell-based, Homo sapiens; settings: Homo sapiens, LAN-6;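 note: growth inhibition of LAN-6 cells, determined with a cell viability assay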
Description: SANGER: Inhibition of human LAN-6 cell growth in a cell viability assay.

NCI-H1648 = format: functional, cell-based, Homo sapiens; settings: Homo sapiens, NCI-H1648;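 note: cell viability assay measuring inhibition of NCI-H1648 cell growth, from the Sanger screening data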
Description: SANGER: Inhibition of human NCI-H1648 cell growth in a cell viability assay.

NCI-H2405 = format: functional, cell-based, Homo sapiens; settings: Homo sapiens, NCI-H2405;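 note: growth inhibition of the human cell line, read out with a cell viability assay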
Description: SANGER: Inhibition of human NCI-H2405 cell growth in a cell viability assay.

H-EMC-SS = format: functional, cell-based; settings: Homo sapiens
Description: SANGER: Inhibition of human H-EMC-SS cell growth in a cell viability assay.

NCI-H810 = format: functional, cell-based, Homo sapiens; settings: Homo sapiens, NCI-H810;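 note: IC50 reflects inhibition of cancer cell line growth, read out with a cell viability assay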
Description: SANGER: Inhibition of human NCI-H810 cell growth in a cell viability assay.

NCI-H2029 = format: functional, cell-based; settings: Homo sapiens;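 note: Read-out is a viability assay on the cultured cells, and IC50 is the concentration that suppresses cell growth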
Description: SANGER: Inhibition of human NCI-H2029 cell growth in a cell viability assay.

23132-87 = format: functional, cell-based, Homo sapiens; settings: Homo sapiens
Description: SANGER: Inhibition of human 23132-87 cell growth in a cell viability assay.

SMILES	IC50 (NOMO-1) [nM]	IC50 (SAOS-2) [µM]	IC50 (OAW-28) [µM]	IC50 (HuO9) [nM]	IC50 (MOLT-13) [nM]	IC50 (CAL-33) [nM]	IC50 (NCI-H82) [µM]	IC50 (NCI-H1304) [µM]	IC50 (NCI-H1092) [µM]	IC50 (SJRH30) [µM]	IC50 (Panc1005) [µM]	IC50 (8505C) [µM]	IC50 (NB7) [nM]	IC50 (LAMA-84) [µM]	IC50 (ZR-75-30) [µM]	IC50 (OC-314) [µM]	IC50 (HN) [nM]	IC50 (SW872) [µM]	IC50 (DU-145) [µM]	IC50 (KNS-81-FD) [µM]	further results
COc1ccc(-c2ccc3c(N4CCOC[C@@H]4C)nc(N4CCOC[C@@H]4C)nc3n2)cc1CO [AZD-8055]	> 2000	1.82	> 2	407	665	865	> 2	> 2	1.13	> 2	> 2	1.29	> 2000	0.18	> 2	1.3	1900	1.39	> 2	1.89	IC50 (LB996-RCC): > 2 µM; IC50 (A704): 818 nM; IC50 (CAL-62): 0.799 µM; IC50 (LAN-6): > 2 µM; IC50 (NCI-H1648): 702 nM; IC50 (NCI-H2405): 1.15 µM; IC50 (H-EMC-SS): > 2000 nM; IC50 (NCI-H810): > 2 µM; IC50 (NCI-H2029): > 2 µM
O=C1N=C(NCc2cccs2)S/C1=C\c1ccc2ncccc2c1	> 5000	> 5	> 5	> 5000	> 5000	> 5000	> 5	> 5	> 5	> 5	> 5	> 5	> 5000	> 5	> 5	> 5	> 5000	> 5	> 5	> 5	IC50 (LB996-RCC): > 5 µM; IC50 (A704): > 5000 nM; IC50 (CAL-62): > 5 µM; IC50 (LAN-6): > 5 µM; IC50 (NCI-H1648): > 5000 nM; IC50 (NCI-H2405): 4.74 µM; IC50 (H-EMC-SS): > 5000 nM; IC50 (NCI-H810): > 5 µM; IC50 (NCI-H2029): > 5 µM
CN(C)C/C=C/C(=O)Nc1cc2c(Nc3ccc(F)c(Cl)c3)ncnc2cc1O[C@H]1CCOC1 [AFATINIB]	> 500	> 0.5	> 0.5	> 500	240	202	> 0.5	> 0.5	> 0.5	> 0.5	> 0.5	> 0.5	> 500	> 0.5	0.0955	> 0.5	131	> 0.5	0.448	> 0.5	IC50 (23132-87): 319 nM; IC50 (A704): > 500 nM; IC50 (CAL-62): > 0.5 µM; IC50 (LAN-6): > 0.5 µM; IC50 (NCI-H1648): 442 nM; IC50 (NCI-H2405): > 0.5 µM; IC50 (H-EMC-SS): > 500 nM; IC50 (NCI-H810): > 0.5 µM; IC50 (NCI-H2029): > 0.5 µM
COc1ccc(C2=N[C@@H](c3ccc(Cl)cc3)[C@@H](c3ccc(Cl)cc3)N2C(=O)N2CCNC(=O)C2)c(OC(C)C)c1 [NUTLIN-3]	> 8000	> 8	> 8	> 8000	> 8000	> 8000	> 8	> 8	> 8	> 8	> 8	> 8	> 8000	> 8	> 8	> 8	> 8000	> 8	> 8	6.76	IC50 (LB996-RCC): 3.63 µM; IC50 (A704): > 8000 nM; IC50 (CAL-62): > 8 µM; IC50 (LAN-6): > 8 µM; IC50 (NCI-H1648): > 8000 nM; IC50 (NCI-H2405): > 8 µM; IC50 (H-EMC-SS): 6390 nM; IC50 (NCI-H810): > 8 µM; IC50 (NCI-H2029): > 8 µM
O=C(NOCC1CC1)c1ccc(F)c(F)c1Nc1ccc(I)cc1Cl [CI-1040]	257	> 10	> 10	> 10000	5070	5120	> 10	6.2	> 10	> 10	6.28	3.9	2340	3.14	> 10	> 10	2160	> 10	> 10	> 10	IC50 (23132-87): 5170 nM; IC50 (A704): > 10000 nM; IC50 (CAL-62): 4.07 µM; IC50 (LAN-6): 4.32 µM; IC50 (NCI-H1648): > 10000 nM; IC50 (NCI-H2405): > 10 µM; IC50 (H-EMC-SS): 1300 nM; IC50 (NCI-H810): > 10 µM; IC50 (NCI-H2029): > 10 µM
